For assay [1], the system named is Staphylococcus aureus ATCC 25923. The assay is described as follows: Broth microdilution MIC / growth inhibition. Type of assay: cell-based. The settings on record: microdilution in TSB, 8.7-70 μM, 20 h at 37 °C, absorbance 600 nm. As to the method: (§1) To establish the minimum inhibitory concentration (MIC), the microdilution-in-broth protocol for AMPs proposed by Wiegand et al. (2008) was performed. Bacterial strains Escherichia coli ATCC 25922 and Staphylococcus aureus ATCC 25923 were cultured in tryptic soy agar (TSA). For the assay, 5 bacterial colonies were taken, dissolved in tryptic soy broth (TSB), and incubated at 37 °C until reaching 0.5 on the McFarland scale (1 × 10^8 CFU/mL). Subsequently, a dilution was made to achieve a final concentration of 5 × 10^5 CFU/mL. A 96-well plate was used for the assay in which each bacterial strain was exposed to different concentrations of the peptides to be evaluated: 70 μM, 35 μM, 17.5 μM, and 8.7 μM. Different controls were employed: TSB medium served as the sterility control and blank; bacteria without treatment were utilized as the negative control; and bacteria exposed to the Ramosin peptide at 40 μM [31] and sodium hypochlorite at 0.06% were employed as positive controls. Each treatment was performed in triplicate, and each assay was carried out on two different days. The plate was incubated for 20 h at 37 °C in a Multiskan Sky (Thermo Fisher, Waltham, MA, USA), reading the absorbance at a wavelength of 600 nm every hour.
(§2) The results were read in two ways: an endpoint analysis in which the absorbances of the wells were read at 20 h of treatment, to determine the inhibitory effect of the peptide, and a bacterial growth kinetics analysis in which the behavior of the peptide throughout the assay was observed, identifying a bactericidal or bacteriostatic action.

For assay [2], the system named is Escherichia coli ATCC 25922. Type of assay: cell-based. The settings on record: for inhibitory effect on bacterial growth: microdilution in TSB, 8.7-70 μM, 20 h at 37 °C, absorbance 600 nm. On the procedure:
as §1, §2
On the technique in general: In broth dilution the organism is exposed to a series of concentrations in liquid medium.

Converted amounts (≈) assume the structure as drawn. Where a SMILES comes first, the peptide text is derived from it.

Take “Peptide 4767: 13-residue peptide YITGLIAPILKSL predicted from the Ambystoma mexicanum transcriptome, chemically synthesized”: the “inhibitory effect on bacterial growth” value in assay [1] and in assay [2] was “did not exert a complete inhibitory effect” in each case. Regarding `CC[C@H](C)[C@H](NC(=O)[C@H](CO)NC(=O)[C@H](Cc1ccccc1)NC(=O)CN)C(=O)N[C@@H](CO)C(=O)N[C@@H](CC(C)C)C(=O)N[C@@H](CCCCN)C(=O)N[C@@H](CCCNC(=N)N)C(=O)N[C@@H](CC(C)C)C(=O)N[C@@H](CCC(N)=O)C(=O)N[C@@H](CCCCN)C(=O)N[C@@H](CCSC)C(=O)N[C@@H](CC(C)C)C(=O)O` [AXOTL-13] (H-GFSISLKRLQKML-OH), in assay [2] (ATCC 25922, 20 h), the “minimum inhibitory concentration (MIC)” value stood at 35 µM (≈ 53.2 µg/mL). Turning to “Peptide 4771: 13-residue peptide LLDTIGKIFGSLL predicted from the Ambystoma mexicanum transcriptome, chemically synthesized”, the “inhibitory effect on bacterial growth” value in assay [1] and in assay [2] was “did not exert a complete inhibitory effect” throughout.

Take “Peptide 4769: 13-residue peptide LHPLIGRVIGGVI predicted from the Ambystoma mexicanum transcriptome, chemically synthesized”: the “inhibitory effect on bacterial growth” value in assay [1] and in assay [2] was “did not exert a complete inhibitory effect” in each case. With “Peptide 4768: 12-residue peptide VLGSILGALKAI predicted from the Ambystoma mexicanum transcriptome, chemically synthesized”, the “inhibitory effect on bacterial growth” value in assay [1] and in assay [2] was “did not exert a complete inhibitory effect” in each case. With “Peptide 4766: 13-residue peptide LIGGQLGGLIKAL predicted from the Ambystoma mexicanum transcriptome, chemically synthesized”, the “inhibitory effect on bacterial growth” value in assay [1] and in assay [2] was “did not exert a complete inhibitory effect” in each case.

The values are drawn from article PMC11597150, “Antibacterial Activity of AXOTL-13, a Novel Peptide Identified from the Transcriptome of the Salamander Ambystoma mexicanum” (Pharmaceutics, 2024).
